In the CheMixHub viscosity set:

Assay: xn = mol fraction of the nth substance listed

CCCCCCCCCCCCCC[P+](CCCCCC)(CCCCCC)CCCCCC.c1nnc[n-]1 + CCCCCCn1cc[n+](C)c1.O=S(=O)([N-]S(=O)(=O)C(F)(F)F)C(F)(F)F
viscosity [mPa·s], 100 kPa
Details	x1 = 0.107	x1 = 0.208	x1 = 0.307	x1 = 0.4	x1 = 0.507	x1 = 0.622	x1 = 0.718	x1 = 0.805	x1 = 0.9
293.15 K	132	220	308	452	677	901	1162	1349	1458
298.15 K	103	165	227	329	485	633	811	932	1013
303.15 K	81	127	171	245	355	456	579	664	720
308.15 K	65	99	132	186	267	337	422	484	524
313.15 K	54	79	104	145	204	253	314	359	389
318.15 K	–	64	83	115	159	194	239	273	296
323.15 K	–	53	67	93	127	152	185	211	229

CC(=O)CC(C)C + CCCCCO
viscosity [mPa·s]
Details	x1 = 0.1011	x1 = 0.1974	x1 = 0.304	x1 = 0.4023	x1 = 0.5022	x1 = 0.6064	x1 = 0.7079	x1 = 0.7955	x1 = 0.8962
298.15 K, 101 kPa	2.47	1.89	1.46	1.2	1	0.856	0.738	0.668	0.592
298.15 K, 101.3 kPa	2.47	1.89	1.46	1.2	1	0.856	0.738	0.668	0.592
303.15 K, 101.3 kPa	2.2	1.7	1.32	1.1	0.919	0.792	0.694	0.624	0.558
308.15 K, 101.3 kPa	1.96	1.53	1.2	1.01	0.846	0.735	0.646	0.589	0.53
313.15 K, 101.3 kPa	1.75	1.38	1.09	0.915	0.781	0.683	0.601	0.555	0.501
